Results reported in ChEMBL document CHEMBL5120938, “Development of BET Inhibitors as Potential Treatments for Cancer: Optimization of Pharmacokinetic Properties” (ACS Med Chem Lett, 2022).
pIC50: −log10 of the molar value.

How the values were obtained:
[1] = molecular target: Bromodomain-containing protein 4 (Homo sapiens, UniProt O60885); test: Inhibition of N-terminal His6-tagged recombinant human BRD4 (44 to 168 residues) expressed in Escherichia coli BL21 (DE3) incubated for 60 mins by TR-FRET assay
[2] = Metabolic stability in alamethicin treated Sprague-Dawley rat liver microsomes assessed as half life pretreated for 5 mins followed by UDPGA addition and measured up to 45 mins by LC-MS/MS analysis; format: ADME, Microsome; details: time < 50 min
[3] = Metabolic stability in alamethicin treated Beagle dog liver microsomes assessed as half life pretreated for 5 mins followed by UDPGA addition and measured up to 45 mins by LC-MS/MS analysis; format: ADME, Canis lupus familiaris, Microsome; details: Beagle, liver microsomes, time < 50 min
[4] = Inhibition of c-MYC expression in human JJN-3R cells measured after 4 hrs; format: functional, cell-based
[5] = Metabolic stability in alamethicin treated Beagle dog liver microsomes assessed as half life pretreated for 5 mins followed by NADPH addition and measured up to 45 mins by LC-MS/MS analysis; format: ADME, Canis lupus familiaris, Microsome; details: time < 50 min
[6] = Metabolic stability in alamethicin treated cynomologus monkey liver microsomes assessed as half life pretreated for 5 mins followed by UDPGA addition and measured up to 45 mins by LC-MS/MS analysis; format: ADME, Macaca fascicularis, Microsome; details: cynomolgus monkey, time < 50 min
[7] = Metabolic stability in alamethicin treated human liver microsomes assessed as half life pretreated for 5 mins followed by NADPH addition and measured up to 45 mins by LC-MS/MS analysis; format: ADME, Microsome; details: time < 50 min
[8] = Metabolic stability in alamethicin treated CD-1 mouse liver microsomes assessed as half life pretreated for 5 mins followed by NADPH addition and measured up to 45 mins by LC-MS/MS analysis; format: ADME, Microsome; details: time < 50 min
[9] = Metabolic stability in alamethicin treated cynomologus monkey liver microsomes assessed as half life pretreated for 5 mins followed by NADPH addition and measured up to 45 mins by LC-MS/MS analysis; format: ADME, Macaca fascicularis, Microsome; details: cynomolgus monkey, time < 50 min
[10] = Antiproliferative activity against human JJN-3R cells assessed as inhibition of cell proliferation measured after 72 hrs by MTS assay; format: functional, cell-based
[11] = Metabolic stability in alamethicin treated Sprague-Dawley rat liver microsomes assessed as half life pretreated for 5 mins followed by NADPH addition and measured up to 45 mins by LC-MS/MS analysis; format: ADME, Microsome; details: time < 50 min
[12] = Efflux ratio of apparent permeability across […] in human Caco-2 cells after 2 hrs by liquid scintillation counting analysis; format: ADME, cell-based; details: caco-2, 2 h
[13] = Metabolic stability in alamethicin treated human liver microsomes assessed as half life pretreated for 5 mins followed by UDPGA addition and measured up to 45 mins by LC-MS/MS analysis; format: ADME, Microsome; details: time < 50 min
[14] = Metabolic stability in alamethicin treated CD-1 mouse liver microsomes assessed as half life pretreated for 5 mins followed by UDPGA addition and measured up to 45 mins by LC-MS/MS analysis; format: ADME, Microsome; details: time < 50 min
[15] = Volume of distribution in cynomologus monkey at 0.3 mg/kg, po or 0.1 mg/kg, iv; format: ADME, organism-based, Macaca fascicularis; details: cynomolgus monkey, in vivo
[16] = AUC in dog at 0.3 mg/kg, po; format: ADME, organism-based, Canis lupus familiaris; parameters: dose 0.3 mg/kg, route po; details: in vivo
[17] = AUC in rat at 5 mg/kg, po; format: ADME, organism-based; parameters: dose 5 mg/kg, route po; details: in vivo
[18] = Oral bioavailability in dog at 0.3 mg/kg; format: ADME, organism-based, Canis lupus familiaris; details: in vivo
[19] = Antitumor activity against human BR1077F cells xenografted in mouse assessed as tumor growth inhibition at 3 mg/kg, po QD treated as 5 days on and 2 days off regimen for 2 weeks starting from 26 days post tumor implantation; format: functional; details: 336 h, read-out: TGI
[20] = AUC in mouse xenografted with human BR1077F cells at 3 mg/kg, po QD treated as 5 days on and 2 days off regimen for 2 weeks starting from 26 days post tumor implantation; format: ADME, organism-based; parameters: time 2 weeks, dose 3 mg/kg, route po; details: in vivo
[21] = Oral bioavailability in cynomologus monkey at 0.3 mg/kg; format: ADME, organism-based, Macaca fascicularis; details: cynomolgus monkey, in vivo
[22] = Volume of distribution in rat at 5 mg/kg, po or 1 mg/kg, iv; format: ADME, organism-based; details: in vivo
[23] = AUC in mouse at 5 mg/kg, po; format: ADME, organism-based; parameters: dose 5 mg/kg, route po; details: in vivo
[24] = Volume of distribution in mouse at 5 mg/kg, po or 1.75 mg/kg, iv; format: ADME, organism-based; details: in vivo
[25] = Half life in mouse at 1.75 mg/kg, iv; format: ADME, organism-based; details: in vivo
[26] = Drug metabolism in human hepatocytes assessed as glucuronidation of the compound at 5 uM measured after 1 hr by LC/UV/MS analysis; format: ADME, cell-based, Hepatocyte
[27] = Half life in cynomologus monkey at 0.1 mg/kg, iv; format: ADME, organism-based, Macaca fascicularis; details: cynomolgus monkey, in vivo
[28] = Drug metabolism in human hepatocytes assessed as oxidative metabolite formation at 5 uM measured after 1 hr by LC/UV/MS analysis; format: ADME, cell-based, Hepatocyte
[29] = AUC in cynomologus monkey at 0.3 mg/kg, po; format: ADME, organism-based, Macaca fascicularis; parameters: dose 0.3 mg/kg, route po; details: cynomolgus monkey, in vivo
[30] = Volume of distribution in dog at 0.3 mg/kg, po or 0.1 mg/kg, iv; format: ADME, organism-based, Canis lupus familiaris; details: in vivo

Cc1nnn(C)c1-c1cnc2c3ccc(C(C)(O)C(F)(F)F)c(F)c3n([C@H](c3ccccc3)C3CCOCC3)c2c1 (some centres undefined)
pIC50 [1]: 8.52
half-life [2]: 51 min
half-life [3]: 120 min
pIC50 [4]: 8.82
half-life [5]: 42 min
half-life [6]: 120 min
half-life [7]: 40 min
half-life [8]: 58 min
half-life [9]: 49 min
pIC50 [10]: 8.05
half-life [11]: 49 min
Ratio [12]: 1.1
half-life [13]: 120 min
half-life [14]: 120 min

Cc1nnn(C)c1-c1cnc2c3ccc(S(C)(=O)=O)cc3n([C@H](c3ccccc3)C3CCOCC3)c2c1
pIC50 [1]: 9.05
pIC50 [4]: 8.92
half-life [5]: 11 min
half-life [7]: 41 min
half-life [8]: 10 min
half-life [9]: 12 min
pIC50 [10]: 8.30
half-life [11]: 44 min
Ratio [12]: 7.3

[2H]C([2H])([2H])c1nnn(C)c1-c1cnc2c3ccc(C(C)(C)O)c(Cl)c3n([C@H](c3ccccc3)C3CCOCC3)c2c1
pIC50 [1]: 8.96
half-life [2]: 6 min
half-life [3]: 120 min
pIC50 [4]: 8.92
half-life [5]: 35 min
half-life [6]: 120 min
half-life [7]: 56 min
half-life [8]: 25 min
half-life [9]: 30 min
pIC50 [10]: 8.15
half-life [11]: 35 min
Ratio [12]: 1.2
half-life [13]: 120 min
half-life [14]: 120 min

COc1cc2c3ncc(-c4c(C)nnn4C)cc3n([C@H](c3ccccc3)C3CCOCC3)c2cc1C(C)(C)O
pIC50 [1]: 9.10
pIC50 [4]: 9.00
half-life [5]: 9 min
half-life [7]: 9 min
half-life [8]: 5 min
half-life [9]: 1 min
pIC50 [10]: 8.40
half-life [11]: 13 min
Ratio [12]: 1.3
half-life [14]: 120 min

[2H]C([2H])([2H])c1nnn(C)c1-c1cnc2c3cc(Cl)c(C(C)(C)O)cc3n([C@H](c3ccccc3)C3CCOCC3)c2c1
pIC50 [1]: 8.66
half-life [2]: 120 min
half-life [3]: 120 min
pIC50 [4]: 8.70
half-life [5]: 33 min
half-life [6]: 120 min
half-life [7]: 38 min
half-life [8]: 34 min
half-life [9]: 45 min
pIC50 [10]: 8.52
half-life [11]: 39 min
Ratio [12]: 1.4
half-life [13]: 110 min
half-life [14]: 120 min

[2H]C([2H])([2H])c1nnn(C)c1-c1cnc2c3c(OC)cc(C(C)(C)O)cc3n([C@H](c3ccccc3)C3CCOCC3)c2c1
pIC50 [1]: 9.00
half-life [2]: 120 min
half-life [3]: 120 min
pIC50 [4]: 9.00
half-life [5]: 73 min
half-life [6]: 120 min
half-life [7]: 23 min
half-life [8]: 28 min
half-life [9]: 11 min
pIC50 [10]: 8.30
half-life [11]: 35 min
Ratio [12]: > 35
half-life [13]: 98 min
half-life [14]: 120 min

Cc1nnn(C)c1-c1cnc2c3ccc(C(C)(C)O)cc3n([C@H](c3ccccc3)C3CCOCC3)c2c1 [EZOBRESIB]
Vd [15]: 4.2 L/kg
half-life [2]: 61 min
half-life [3]: 120 min
pIC50 [4]: 9.15
half-life [5]: 20 min
AUC [16]: 0.41 µM·h
AUC [17]: 2 µM·h
half-life [6]: 120 min
half-life [7]: 33 min
half-life [8]: 24 min
bioavailability [18]: 59%
half-life [9]: 10 min
inhibition in vivo at 3 mg/kg [19]: 99%
AUC at 336 h [20]: 2.6 µM·h
bioavailability [21]: 16%
Vd [22]: 4.3 L/kg
pIC50 [10]: 8.44
half-life [11]: 36 min
AUC [23]: 18 µM·h
Ratio [12]: 2.6
half-life [13]: 115 min
Vd [24]: 1.9 L/kg
half-life [25]: 114 min
Drug metabolism [26]: Metabolite_Detected
half-life [27]: 120 min
half-life [14]: 120 min
Drug metabolism [28]: Metabolite_Detected
AUC [29]: 0.085 µM·h
Vd [30]: 5.3 L/kg
